Reference: PubChem BioAssay AID248 (DTP/NCI, 2004)
Where “and” joins values, the source holds several entries; their conditions need not be identical. Equal values may be shown once. Inconclusive results and toxic doses are left out. Rule as the data show it: active = T/C of 150% or more; inactive = T/C below 125%.

System: L1210 leukemia ip in BDF1 mice, survival T/C
Assay: NCI In Vivo Anticancer Drug Screen. Data for tumor model L1210 Leukemia (intraperitoneal) in B6D2F1 (BDF1) mice
Settings: endpoint: mean survival time, higher = longer survival
Outline: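 Mice bearing the transplanted tumor received compound or vehicle. Survival of the treated group was divided by that of the vehicle-treated control group to give the ratio.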

[1] = dose: 50.0 mg/kg/injection, schedule: Q01DX009 (ip), vehicle: saline
[2] = dose: 100.0 mg/kg/injection, schedule: Q01DX001 (ip), vehicle: saline
[3] = dose: 100.0 mg/kg/injection, schedule: Q01DX009 (ip), vehicle: saline
[4] = dose: 100.0 mg/kg/injection, schedule: Q04DX003 (ip), vehicle: saline with Tween-80
[5] = dose: 50.0 mg/kg/injection, schedule: Q01DX009 (ip), vehicle: Klucel (hydroxypropylcellulose) (HPC)
[6] = dose: 100.0 mg/kg/injection, schedule: Q01DX009 (ip), vehicle: Klucel (hydroxypropylcellulose) (HPC)
[7] = dose: 100.0 mg/kg/injection, schedule: Q04DX003 (ip), vehicle: Klucel (hydroxypropylcellulose) (HPC)
[8] = dose: 200.0 mg/kg/injection, schedule: Q04DX003 (ip), vehicle: Klucel (hydroxypropylcellulose) (HPC)
[9] = dose: 400.0 mg/kg/injection, schedule: Q04DX003 (ip), vehicle: Klucel (hydroxypropylcellulose) (HPC)
[10] = dose: 100.0 mg/kg/injection, schedule: Q04DX003 (ip), vehicle: saline
[11] = dose: 200.0 mg/kg/injection, schedule: Q04DX003 (ip), vehicle: saline
[12] = dose: 400.0 mg/kg/injection, schedule: Q04DX003 (ip), vehicle: saline
[13] = dose: 3.12 mg/kg/injection, schedule: Q01DX009 (ip), vehicle: saline
[14] = dose: 6.25 mg/kg/injection, schedule: Q01DX009 (ip), vehicle: saline
[15] = dose: 12.5 mg/kg/injection, schedule: Q01DX009 (ip), vehicle: saline
[16] = dose: 200.0 mg/kg/injection, schedule: Q01DX009 (ip), vehicle: saline
[17] = dose: 50.0 mg/kg/injection, schedule: Q01DX001 (ip), vehicle: carboxymethylcellulose (CMC)
[18] = dose: 100.0 mg/kg/injection, schedule: Q01DX001 (ip), vehicle: carboxymethylcellulose (CMC)
[19] = dose: 200.0 mg/kg/injection, schedule: Q01DX001 (ip), vehicle: carboxymethylcellulose (CMC)
[20] = dose: 400.0 mg/kg/injection, schedule: Q01DX001 (ip), vehicle: carboxymethylcellulose (CMC)

Measured: T/C

CC1=NC(C(=O)Cl)NN1c1ccccc1 (centres undefined)
inactive: dose: 25.0 mg/kg/injection, schedule: Q01DX009 (ip), vehicle: saline 101 % of control | dose: 25.0 mg/kg/injection, schedule: Q04DX003 (ip), vehicle: saline with Tween-80 96 % of control | [1] 97 % of control | dose: 50.0 mg/kg/injection, schedule: Q04DX003 (ip), vehicle: saline with Tween-80 101 % of control | [2] 93 % of control | [3] 95 % of control | [4] 98 % of control

COc1cccc(/C=C/c2cnc3ccccc3n2)c1OC
inactive: [5] 104 % of control | [6] 92 % of control

O=C(O)c1cc(C(F)(F)F)nc2c1ccc1ccccc12
inactive: dose: 75.0 mg/kg/injection, schedule: Q01DX001 (ip), vehicle: saline 98 % of control | dose: 150.0 mg/kg/injection, schedule: Q01DX001 (ip), vehicle: saline 98 % of control

CCCCCC(C)C1=NC(C)(C)CC(C)O1 (centres undefined)
inactive: dose: 5.0 mg/kg/injection, schedule: Q04DX003 (ip), vehicle: saline with Tween-80 101 % of control | dose: 10.0 mg/kg/injection, schedule: Q04DX003 (ip), vehicle: saline with Tween-80 95 % of control | dose: 20.0 mg/kg/injection, schedule: Q04DX003 (ip), vehicle: saline with Tween-80 108 % of control

COc1ccc(OC)c(CC(CC(=O)O)(C(=O)O)C(=O)O)c1
inactive: [7] 91 % of control | [8] 96 % of control | [9] 96 % of control

CC1CC(=O)CC(C)(C)N1 (centres undefined)
inactive: [2] 105 % of control | dose: 200.0 mg/kg/injection, schedule: Q01DX001 (ip), vehicle: saline 98 % of control | dose: 400.0 mg/kg/injection, schedule: Q01DX001 (ip), vehicle: saline 94 % of control

CO/N=C/c1ccc([N+](=O)[O-])s1
inactive: [10] 106 % of control | [11] 95 % of control | [12] 98 % of control

CC([NH-])C(=O)O.CC([NH-])C(=O)O.[Ni+2] (centres undefined)
inactive: [13] 98 % of control | [14] 101 % of control | dose: 6.25 mg/kg/injection, schedule: Q04DX003 (ip), vehicle: saline 102 % of control | [15] 95 % of control | dose: 12.5 mg/kg/injection, schedule: Q04DX003 (ip), vehicle: saline 98 % of control and 104 % of control | dose: 25.0 mg/kg/injection, schedule: Q04DX003 (ip), vehicle: saline 105 % of control and 109 % of control | dose: 50.0 mg/kg/injection, schedule: Q04DX003 (ip), vehicle: saline 101 % of control

O=C(c1ccccc1)c1ccc(Cl)c(Cl)c1
inactive: [7] 98 % of control | [8] 89 % of control | [9] 93 % of control

O=S(=O)(NC(=S)c1ccccc1)c1ccccc1
inactive: [1] 108 % of control | [3] 97 % of control

CCN(CCNS(C)(=O)=O)c1ccc(N)c(C)c1
inactive: [13] 101 % of control | [14] 91 % of control | [15] 99 % of control and 92 % of control

Cc1ccc(S)cc1
inactive: [3] 87 % of control

CC(C)N=Cc1ccccc1O.CC(C)N=Cc1ccccc1O.[Ni]
inactive: dose: 6.25 mg/kg/injection, schedule: Q04DX003 (ip), vehicle: saline sonified 92 % of control | dose: 12.5 mg/kg/injection, schedule: Q04DX003 (ip), vehicle: saline sonified 101 % of control | dose: 25.0 mg/kg/injection, schedule: Q04DX003 (ip), vehicle: saline sonified 108 % of control | [10] 86 % of control

CC(O)C(O)C(=O)NN (centres undefined)
inactive: [1] 91 % of control | [3] 98 % of control | [16] 98 % of control

OCC(O)C(O)/C=N/Nc1cc(Cl)ccc1Cl (centres undefined)
inactive: [17] 90 % of control | [18] 104 % of control | [19] 95 % of control

O[O][Ge]([c]1ccccc1)([c]1ccccc1)[c]1ccccc1
inactive: [7] 88 % of control | [8] 91 % of control | [9] 88 % of control

CCOC(=O)C(C)(C)CN(CC(C)(C)C(=O)OCC)c1ccccc1
inactive: [4] 106 % of control | dose: 200.0 mg/kg/injection, schedule: Q04DX003 (ip), vehicle: saline with Tween-80 106 % of control | dose: 400.0 mg/kg/injection, schedule: Q04DX003 (ip), vehicle: saline with Tween-80 104 % of control

CC(C)(/C=N/N=C(N)N)CCC#N
inactive: dose: 60.0 mg/kg/injection, schedule: Q01DX Z (oral), vehicle: saline 98 % of control | dose: 120.0 mg/kg/injection, schedule: Q01DX Z (oral), vehicle: saline 109 % of control | dose: 240.0 mg/kg/injection, schedule: Q01DX Z (oral), vehicle: saline 103 % of control | dose: 480.0 mg/kg/injection, schedule: Q01DX Z (oral), vehicle: saline 94 % of control and 116 % of control

COC(=O)c1cc2ccncc2c2sc3ccccc3c12
inactive: [3] 97 % of control | [10] 90 % of control | [16] 93 % of control | [11] 92 % of control | dose: 400.0 mg/kg/injection, schedule: Q01DX009 (ip), vehicle: saline 95 % of control | [12] 90 % of control

Oc1cccc2cccnc12
inactive: [18] 100 % of control | [20] 96 % of control

CCCCCOB(OCCCCC)OCCCCC
inactive: [17] 93 % of control | [18] 95 % of control | [19] 93 % of control | [20] 98 % of control

CC(CNN=C(N)N)NN=C(N)N (centres undefined)
inactive: dose: 30.0 mg/kg/injection, schedule: Q01DX Z (ip), vehicle: saline 116 % of control | dose: 60.0 mg/kg/injection, schedule: Q01DX Z (ip), vehicle: saline 100 % of control | dose: 120.0 mg/kg/injection, schedule: Q01DX Z (ip), vehicle: saline 96 % of control

O=S(=O)(O)C(Nc1ccccn1)c1ccccc1 (centres undefined)
inactive: dose: 100.0 mg/kg/injection, schedule: Q01DX001 (ip), vehicle: saline with Tween-80 104 % of control

O=C1OI(Cl)c2ccccc21
inactive: dose: 100.0 mg/kg/injection, schedule: Q04DX002 (ip), vehicle: Klucel (hydroxypropylcellulose) (HPC) 88 % of control | dose: 200.0 mg/kg/injection, schedule: Q04DX002 (ip), vehicle: Klucel (hydroxypropylcellulose) (HPC) 120 % of control

Cc1ccc(S(=O)(=O)C2CCCCC2Cl)cc1 (centres undefined)
inactive: [18] 109 % of control | [19] 102 % of control | [20] 98 % of control

COc1ccc(N=NN(C)C(C)=O)cc1
inactive: [5] 102 % of control | dose: 75.0 mg/kg/injection, schedule: Q01DX001 (ip), vehicle: Klucel (hydroxypropylcellulose) (HPC) 101 % of control | [6] 103 % of control | dose: 150.0 mg/kg/injection, schedule: Q01DX001 (ip), vehicle: Klucel (hydroxypropylcellulose) (HPC) 93 % of control | dose: 200.0 mg/kg/injection, schedule: Q01DX009 (ip), vehicle: Klucel (hydroxypropylcellulose) (HPC) 100 % of control | dose: 300.0 mg/kg/injection, schedule: Q01DX001 (ip), vehicle: Klucel (hydroxypropylcellulose) (HPC) 96 % of control

O=S(=O)(OCC1CO1)c1ccccc1 (centres undefined)
inactive: dose: 50.0 mg/kg/injection, schedule: Q01DX006 (ip), vehicle: saline with Tween-80 103 % of control | dose: 100.0 mg/kg/injection, schedule: Q01DX006 (ip), vehicle: saline with Tween-80 106 % of control | dose: 200.0 mg/kg/injection, schedule: Q01DX006 (ip), vehicle: saline with Tween-80 110 % of control
